Here are results for nine compounds from patent publication US20080220497A1, “Modulation of protein functionalities” (priority 2003, published 2008).

For one assay, the target named is T1, V599E Braf kinase (Homo sapiens, UniProt P15056, V600E).
T1 construct: 6×His-tag (N); made in house; host or cells: Sf9 insect cells (baculovirus)
Description: Thermal denaturation of oncogenic V599E Braf kinase. It is filed as binding. Conditions: 1.4 μM V599E Braf kinase, 20 μM small molecule; read-out: ΔTm (° C.) relative to unphosphorylated B-Raf(V599E). Here is the method:
(§1) Denaturation was monitored by measuring the absolute absorbance of the solutions at an appropriate wavelength (typically 230 nm and 240 nm) as a function of temperature. As the protein became denatured, additional UV absorbing functional groups became exposed causing an increase in absorbance at the melting temperature. […] The thermal data were collected using Agilent spectrophotometers and ChemStation UV/Vis Thermal Denaturation software.
(§2) The final solution was transferred to a 50 μL cuvette for analysis.
as §2
(§3) A first derivative calculation with data smoothing was applied to the resulting data to report the point of inflection as the melting temperature.

The next assay deals with Abl kinase. Description: Thermal denaturation of Abl kinase. It is filed as binding, human. Conditions: 1 μM Abl kinase, 20 μM small molecule. As to the method:
as §1
5 μL of 40 μM Abl kinase was mixed with 195 μL of the small molecule/buffer solution. The final concentration was 1 μM Abl kinase and 20 μM small molecule. The final protein and buffer solution was mixed gently using a pipetter to minimize denaturing due to over aggressive mixing. The final solution was transferred to a 50 μL cuvette for analysis.
Test solutions containing only the Abl kinase were prepared as follows: 5 μL of 40 μM Abl kinase was mixed with 195 μL Buffer to give a concentration of 1 μM Abl kinase in Buffer. The protein and buffer solution was mixed gently using a pipetter to minimize denaturing due to over aggressive mixing. The final solution was transferred to a 50 μL cuvette for analysis.
as §3

Another assay has as its target p38-alpha kinase (Homo sapiens, UniProt Q16539). To be noted: time-dependent if IC50 values decrease with reaction time (more than two-fold in four hours).
Assay [1] concerns the target T2, unphosphorylated p38-alpha kinase (Homo sapiens, UniProt Q16539, DEL261-261).
T2 construct: 48 (6×His-TEV tag, full length); 6×His-TEV tag (N); purchased Decode Genetics, Inc; host or cells: E. coli
Description: Fluorescence affinity assay, unphosphorylated p38-alpha kinase. It is filed as binding. An excerpt: (§4) This fluorescence affinity assay is utilized in an affinity-based screen to identify small molecules which bind into switch control pockets of protein kinases. Binding of small molecule switch inhibitors displaces the switch control ligand phenylalanine of the DFG motif into an orientation which sterically blocks the ATP pocket. Such inhibitor-induced blockade of the ATP pocket is registered as an inhibition of binding of the fluoroprobe into the ATP pocket.
(§5) • 1. p38-alpha kinase • a. […] Polarstar Optima plate reader (BMG)
• 1. […] This dilution can be done automatically on a Tecan (or similar) robotic workstation or performed manually. • 3. Mix Solution A with the diluted compound solutions following Step 3 of Table 22. This step can be performed automatically on a Tecan (or similar) robotic workstation or performed manually. • 4. Incubate at 30° C. or room temp for 2 h, depending on protein stability. • 5. Read at emission wavelength 420 nm upon excitation at 340 nm.
The reaction was initiated by addition of the enzyme. […] By comparison of RFU (relative fluorescence units) values with that of a control (in the absence of small molecule modulators), the percentage of inhibition at each concentration of the small molecules was calculated. IC50 values for the small molecule modulators were calculated from the % inhibition values obtained at a range of concentrations of the small molecule modulators using Prism (available from GraphPad, Inc.). When time-dependent inhibition was assessed, the plate was read at multiple reaction times such as 0.5, 1, 2, 3, 4 and 6 hours. The IC50 values were calculated at each time point. An inhibition was assigned as time-dependent if the IC50 values decrease with the reaction time (more than two-fold in four hours).
(§6) A ratio greater than 1.0 indicates a preference for inhibiting the unphosphorylated form of p38-alpha kinase relative to the doubly phosphorylated form. A ratio less than 1.0 indicates a preference for inhibiting the doubly phosphorylated form of p38-alpha kinase relative to the unphosphorylated form.

Assay [2] concerns the target T3, doubly phosphorylated p38-alpha kinase (Homo sapiens, UniProt Q16539).
T3 construct: 6xHis ([…], seen only in the listing) (C); purchased Roche Applied Diagnostics
Description: Fluorescence affinity assay, doubly phosphorylated p38-alpha kinase. The class given is binding. Conditions: ~24 nM enzyme; 1.0 uM SKF-86002; read-out: FP IC50 P-p38-alpha.
Text: as §4, §5
• 1. […] This dilution can be done automatically on a Tecan (or similar) robotic workstation or performed manually. • 3. Mix Solution A with the diluted compound solutions following Step 3 of Table 22. This step can be performed automatically on a Tecan (or similar) robotic workstation or performed manually. • 4. Incubate at 30° C. or room temp for 2 h, depending on protein stability. • 5. Read at emission wavelength 420 nm upon excitation at 340 nm. […]
as §6

Assay [3] has as its target T2, unphosphorylated p38-alpha kinase. Description: Thermal denaturation of unphosphorylated p38-alpha kinase. The class given is binding. Conditions: […] p38-alpha kinase, 15 μM small molecule.
Text: as §1
The final protein and buffer solution was mixed gently using a pipetter to minimize denaturing due to over aggressive mixing. The final solution was transferred to a 50 μL cuvette for analysis.
as §2, §3

Assay [4] has as its target T3, doubly phosphorylated p38-alpha kinase. Description: Thermal denaturation of doubly phosphorylated p38-alpha kinase. The class given is binding. To be noted: 0.5 μM p38-alpha kinase, 20 μM small molecule. As to the method: as §1
The final concentration was 0.5 μM p38-alpha kinase and 20 μM small molecule. The final protein and buffer solution was mixed gently using a pipetter to minimize denaturing due to over aggressive mixing. The final solution was transferred to a 50 μL cuvette for analysis.
The protein and buffer solution was mixed gently using a pipetter to minimize denaturing due to over aggressive mixing. The final solution was transferred to a 50 μL cuvette for analysis.
as §3

For another assay, the target named is T4, Phospho-p38-alpha kinase (Homo sapiens, UniProt Q16539).
T4 construct: 6xHis ([…], seen only in the listing) (C); purchased Roche Applied Diagnostics
T4 sequence (Q16539 with tags, fused parts or gaps): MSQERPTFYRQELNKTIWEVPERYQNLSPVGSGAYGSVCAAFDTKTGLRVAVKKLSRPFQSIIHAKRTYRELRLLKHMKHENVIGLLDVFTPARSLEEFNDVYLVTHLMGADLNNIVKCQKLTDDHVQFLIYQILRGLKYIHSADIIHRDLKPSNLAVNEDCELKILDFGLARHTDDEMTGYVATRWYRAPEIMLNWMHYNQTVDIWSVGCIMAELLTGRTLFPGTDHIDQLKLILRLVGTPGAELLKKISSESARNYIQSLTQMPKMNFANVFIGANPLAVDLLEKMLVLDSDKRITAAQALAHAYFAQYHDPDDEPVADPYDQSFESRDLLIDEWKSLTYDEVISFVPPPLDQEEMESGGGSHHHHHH
Description: Spectrophotometric assay for phospho-p38-alpha kinase. Conditions: p38-alpha kinase biochemical assay.

Assay [5] concerns the target T5, c-Abl kinase (Homo sapiens, UniProt P00519).
T5 construct: other: c-Abl kinase
Description: Fluorescence affinity assay for Abl kinase (PD 166326 fluoroprobe). Conditions: read-out: EC50 for accelerating the binding of fluoroprobe PD 166326; c-Abl kinase; early time-point binding. It is filed as binding. As to the method: (§7) Tris buffer: 90 mM Tris-HCl buffer, pH 7.5, containing 0.2% octyl-glucoside • 4. […] Polarstar Optima plate reader (BMG) or equivalent
(§8) B. Procedure: • 1. Make Solution A containing 80 nM Abl in the Tris buffer • 2. Serially dilute test compounds in Solution A (50 uL per well) • 3. Incubate the plate at room temp for 0.5 h • 4.
(§9) Abl kinase was preincubated with test compounds for […] in the absence of fluoroprobe. […] By comparison of RFU (relative fluorescence units) values with that of a control (in the absence of small molecule modulators), the percentage of modulation at each concentration of the small molecules was calculated.

Assay [6] concerns c-Abl kinase. The description is as above. It is filed as binding, human. Conditions: 100 nM PD 166326, 40 nM Abl kinase. As to the method: as §7, §8, §9

T5 sequence (P00519 1-1149 isoform P00519-2): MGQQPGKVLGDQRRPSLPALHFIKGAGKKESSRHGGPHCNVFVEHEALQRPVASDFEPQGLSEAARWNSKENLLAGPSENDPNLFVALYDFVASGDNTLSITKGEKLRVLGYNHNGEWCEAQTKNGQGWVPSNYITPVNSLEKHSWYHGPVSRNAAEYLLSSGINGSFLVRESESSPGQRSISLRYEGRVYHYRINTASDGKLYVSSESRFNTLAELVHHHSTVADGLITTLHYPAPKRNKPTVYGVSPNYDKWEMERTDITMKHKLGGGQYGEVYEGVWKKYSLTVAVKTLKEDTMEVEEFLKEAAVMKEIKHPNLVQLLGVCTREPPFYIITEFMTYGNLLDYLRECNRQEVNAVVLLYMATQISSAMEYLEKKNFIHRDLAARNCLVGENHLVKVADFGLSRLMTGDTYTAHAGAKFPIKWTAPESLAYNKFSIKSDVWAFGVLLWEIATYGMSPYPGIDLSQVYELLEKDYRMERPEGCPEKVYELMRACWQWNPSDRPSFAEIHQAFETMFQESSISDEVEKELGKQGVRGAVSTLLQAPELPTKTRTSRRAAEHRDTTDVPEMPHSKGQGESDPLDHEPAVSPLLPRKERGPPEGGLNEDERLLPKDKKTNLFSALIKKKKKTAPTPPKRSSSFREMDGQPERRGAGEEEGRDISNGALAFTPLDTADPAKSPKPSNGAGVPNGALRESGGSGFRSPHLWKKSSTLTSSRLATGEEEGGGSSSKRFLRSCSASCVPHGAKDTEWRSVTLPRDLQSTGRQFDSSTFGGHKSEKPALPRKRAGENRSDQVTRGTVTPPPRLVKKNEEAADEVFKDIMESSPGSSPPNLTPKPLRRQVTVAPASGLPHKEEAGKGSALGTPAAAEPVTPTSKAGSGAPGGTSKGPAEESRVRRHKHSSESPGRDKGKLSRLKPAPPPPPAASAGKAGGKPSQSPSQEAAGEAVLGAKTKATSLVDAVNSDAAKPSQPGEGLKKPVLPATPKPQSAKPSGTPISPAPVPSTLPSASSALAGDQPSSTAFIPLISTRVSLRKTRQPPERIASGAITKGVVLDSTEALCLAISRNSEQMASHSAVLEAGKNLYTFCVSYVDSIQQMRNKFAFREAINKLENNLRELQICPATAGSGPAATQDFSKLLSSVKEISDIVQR
T2 sequence (Q16539 with tags, fused parts or gaps DEL261-261): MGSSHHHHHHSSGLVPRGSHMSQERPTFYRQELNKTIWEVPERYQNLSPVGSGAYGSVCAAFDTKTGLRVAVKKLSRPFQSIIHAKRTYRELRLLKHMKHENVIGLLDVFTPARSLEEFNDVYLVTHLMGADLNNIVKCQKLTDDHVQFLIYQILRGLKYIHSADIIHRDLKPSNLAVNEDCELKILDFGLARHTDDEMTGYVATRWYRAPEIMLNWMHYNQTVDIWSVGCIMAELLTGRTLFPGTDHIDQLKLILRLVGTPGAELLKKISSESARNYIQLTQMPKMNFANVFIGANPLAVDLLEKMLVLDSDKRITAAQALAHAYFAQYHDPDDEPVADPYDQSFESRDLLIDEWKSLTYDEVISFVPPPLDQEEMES
Sequence of p38-alpha kinase (Q16539 whole entry): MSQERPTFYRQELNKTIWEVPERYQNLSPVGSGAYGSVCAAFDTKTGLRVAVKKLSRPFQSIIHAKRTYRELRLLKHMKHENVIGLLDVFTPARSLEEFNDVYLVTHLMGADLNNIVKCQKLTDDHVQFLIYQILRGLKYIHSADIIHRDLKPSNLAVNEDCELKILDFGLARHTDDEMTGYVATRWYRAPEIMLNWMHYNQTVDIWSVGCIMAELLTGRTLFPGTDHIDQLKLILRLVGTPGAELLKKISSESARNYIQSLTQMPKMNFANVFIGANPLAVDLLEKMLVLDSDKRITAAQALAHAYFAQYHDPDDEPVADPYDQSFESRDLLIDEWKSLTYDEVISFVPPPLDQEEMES
T1 sequence (P15056 with tags, fused parts or gaps V600E): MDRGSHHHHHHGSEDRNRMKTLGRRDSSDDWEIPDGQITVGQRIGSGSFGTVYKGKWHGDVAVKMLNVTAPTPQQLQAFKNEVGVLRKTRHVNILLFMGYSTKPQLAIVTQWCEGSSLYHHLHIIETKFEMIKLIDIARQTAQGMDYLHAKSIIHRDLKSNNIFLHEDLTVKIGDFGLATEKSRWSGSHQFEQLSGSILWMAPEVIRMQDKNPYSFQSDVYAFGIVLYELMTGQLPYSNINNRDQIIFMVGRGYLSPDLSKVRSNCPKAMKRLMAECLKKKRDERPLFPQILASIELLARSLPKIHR
T3 sequence (Q16539 with tags, fused parts or gaps): as the sequence (Q16539 with tags, fused parts or gaps) above
Description for Phospho-p38-alpha kinase: Spectrophotometric Assay for Phospho-p38-alpha Kinase
NADH (Sigma): 5.6 mM • 5. Phosphoenol pyruvate (Sigma): 20 mM • 6. […] ATP (20 mM) • 8. […] Polarstar Optima plate reader (BMG)
IC50 determinations were performed using a serial dilution scheme to dilute inhibitor in DMSO, followed by further dilution in reaction buffer, and finally mixing with Mixture 1 (Table 29) which contains all the enzymes. The dilution procedure ensured that the test compound at various concentrations was properly dissolved into the buffer and enzyme reaction mixture.
Prepare Mixture 1 as described in Table 29 (use within 30 min) • 3. Mix the diluted compound with Mixture 1 following Step 3 of Table 28 • 4. Incubate the 384-well plate at 30° C. for 2 hours • 5. Add 1 μL of 30 mM ATP into each well and mix well • 6. Read on the microplate reader with one point every min for at least 2.5 hours at 30° C.
A linear regression was applied to data collected from t=1.5 hr to 2.5 hr to obtain the reaction rate for each data set. The data were approximately linear within this time frame. Percentage of inhibition was calculated by comparison of the rate in the presence of a compound with that of the control. IC50 values were calculated from a series of % inhibition values determined at a range of inhibitor concentrations using GraphPad Prism (version 4).

For orientation: ΔTm means the shift of the melting midpoint relative to a reference. As to `CC(C)(C)c1cc(NC(=O)Nc2cccc(Cl)c2Cl)n(-c2ccc3c(c2)CN(S(C)(=O)=O)CC3)n1` [Example 80], the thermal shift (ΔTm) at 20 µM at V599E Braf kinase is 14.6 °C. Moreover, the “ΔTm (° C.) relative to unphosphorylated Abl” value in the assay on Abl kinase stood at 2.3 °C.

For the compound `CC1(C(=O)O)CC2(C)CC(C)(C1)C(=O)N(Cc1cccc(-n3nc(C(C)(C)C)cc3NC(=O)Nc3cccc4ccccc34)c1)C2=O` (stereo not shown) [Example 11], on p38-alpha kinase, the Time-dependent result is listed as “No”.

As for `CC(C)(C)c1cc(NC(=O)Nc2cccc3ccccc23)n(-c2ccc(CN)cc2)n1` [Example 45], the Time-dependent entry at p38-alpha kinase is given as “No”.

With `CC1(C(=O)O)CC2(C)CC(C)(C1)C(=O)N(Cc1cccc(-n3nc(C(C)(C)C)cc3NC(=O)Nc3ccc(Cl)cc3)c1)C2=O` (stereo not shown) [Example 12], the Time-dependent result at p38-alpha kinase is listed as “No”.

By IC50 is commonly meant the concentration that gives 50% inhibition. In the case of `CC(C)(C)c1cc(NC(=O)Nc2cccc3ccccc23)n(-c2ccc(CO)cc2)n1` [Example 72], the “Ratio IC50s” value in assay [1] (doubly phosphorylated vs unphosphorylated p38-alpha, >1.0 = preference for unphosphorylated form) is on record as 1.7. The half-inhibitory concentration (IC50) in [1] (~24 nM enzyme, 1.0 uM SKF-86002, read-out: FP IC50 U-p38-alpha) was 40 nM; in assay [2], 67 nM. Besides, the “ΔTm (° C.) relative to unphosphorylated apo p38” value in assay [3] is 11.3 °C. Moreover, in assay [4], the “ΔTm (° C.) relative to doubly phosphorylated p38” value was found to be 8.1 °C. For the same compound, the “Competition with ATP” value at Phospho-p38-alpha kinase is given as “non-competitive with ATP”.

Usually EC50 stands for the midpoint of the concentration-response curve. With `CC(C)(C)c1cc(NC(=O)Nc2cccc(Cl)c2Cl)n(-c2ccc3c(c2)C[C@@H](C(=O)O)NC3)n1` [Example 65, (3S)-6-(3-tert-butyl-5-(3-(2,3-dichlorophenyl)ureido)-1H-pyrazol-1-yl)-1,2,3,4-tetrahydroisoquinoline-3-carboxylic acid], the concentration for a half-maximal effect (EC50) on c-Abl kinase [5] stood at 81 nM.

On to `CC(C)(C)c1cc(NC(=O)Nc2cccc(Cl)c2Cl)n(-c2ccc3c(c2)CCNC3)n1` [Example 66, 1-(3-tert-butyl-1-(1,2,3,4-tetrahydroisoquinolin-6-yl)-1H-pyrazol-5-yl)-3-(2,3-dichlorophenyl)urea], for which the concentration giving a half-maximal response (EC50) on c-Abl kinase [5] turned out to be 30 nM. In addition, in the assay with c-Abl kinase [6], the “Effect on binding of fluoroprobe PD 166326 to Abl kinase” value is “concentration-dependent acceleration of the binding of fluoroprobe PD 166326”. In addition, the ΔTm at 20 µM on V599E Braf kinase stood at 15.8 °C. For the same compound, the “ΔTm (° C.) relative to unphosphorylated Abl” value with Abl kinase came out at 3.2 °C.

On to `CC(C)(C)c1cc(NC(=O)Nc2cccc3ccccc23)n(-c2cccc(CC(=O)N3CCOCC3)c2)n1` [Example 21, 1-(3-tert-butyl-1-(3-(2-morpholino-2-oxoethyl)phenyl)-1H-pyrazol-5-yl)-3-(naphthalen-1-yl)urea], for which the Time-dependent result at p38-alpha kinase was “Yes”.

For the compound `CC(C)(C)c1cc(NC(=O)Nc2cccc(Cl)c2Cl)n(-c2ccc3c(c2)CNCC3)n1` [Example 64, 1-(3-tert-butyl-1-(1,2,3,4-tetrahydroisoquinolin-7-yl)-1H-pyrazol-5-yl)-3-(2,3-dichlorophenyl)urea], the EC50 on c-Abl kinase [5] was 43 nM. For the same compound, in the assay on Abl kinase, the “ΔTm (° C.) relative to unphosphorylated Abl” value amounted to 2.6 °C.
